Measurements from patent US8969516B2, “Method of hydrolysis of peptide bond” (priority 2006, dated 2015).

Assay: MALDI-TOF screening of Ni^2+ dependent hydrolysis in a combinatorial peptide library
Format: physicochemical
Conditions: Ni^2+ 2 mM, pH 8.2, 10 mM Tris, score=24/tm
Summary of the method: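 Sublibraries of Ac-Gly-Ala-Ser/Thr-X-His-Z-Lys-Phe-Leu-NH2, randomized at Z and fixed at X, were hydrolyzed at 1 mM total peptide with 2 mM Ni2+ in 10 mM Tris, pH 8.2, at 37 °C or 45 °C. Cleavage was scored visually in MALDI-TOF spectra at 2, 4, 6 and 8 h.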

[1] = CH3CO-Gly-Ala-Ser-X-His-Z-Lys-Phe-Leu-NH2 library, 37° C.
[2] = CH3CO-Gly-Ala-Ser-X-His-Z-Lys-Phe-Leu-NH2 library, 45° C.
[3] = CH3CO-Gly-Ala-Thr-X-His-Z-Lys-Phe-Leu-NH2 library, 37° C.
[4] = CH3CO-Gly-Ala-Thr-X-His-Z-Lys-Phe-Leu-NH2 library, 45° C.

Substance	hydrolysis score from MALDI-TOF screening [1]	hydrolysis score from MALDI-TOF screening [2]	hydrolysis score from MALDI-TOF screening [3]	hydrolysis score from MALDI-TOF screening [4]
Ac-GASSHKKFL-NH2 [SSHK]	4 (a score of 4 for detection at 6 hours)	6 (a score of 6 for detection at 4 hours)		
Ac-GASMHHKFL-NH2 [SMHH]	0 (a score of 0 if no trace of the product of hydrolysis was seen after 8 hours of incubation)	3 (a score of 3 for detection at 8 hours)		
Ac-GASWHEKFL-NH2 [SWHE]	0 (a score of 0 if no trace of the product of hydrolysis was seen after 8 hours of incubation)	0 (a score of 0 if no trace of the product of hydrolysis was seen after 8 hours of incubation)		
Ac-GATNHDKFL-NH2 [TNHD]			0 (a score of 0 if no trace of the product of hydrolysis was seen after 8 hours of incubation)	0 (a score of 0 if no trace of the product of hydrolysis was seen after 8 hours of incubation)
Ac-GASQHIKFL-NH2 [SQHI]	6 (a score of 6 for detection at 4 hours)	6 (a score of 6 for detection at 4 hours)		
Ac-GASGHYKFL-NH2 [SGHY]	0 (a score of 0 if no trace of the product of hydrolysis was seen after 8 hours of incubation)	0 (a score of 0 if no trace of the product of hydrolysis was seen after 8 hours of incubation)		
Ac-GASFHGKFL-NH2 [SFHG]	0 (a score of 0 if no trace of the product of hydrolysis was seen after 8 hours of incubation)	0 (a score of 0 if no trace of the product of hydrolysis was seen after 8 hours of incubation)		
Ac-GATHHVKFL-NH2 [THHV]			0 (a score of 0 if no trace of the product of hydrolysis was seen after 8 hours of incubation)	6 (a score of 6 for detection at 4 hours)
Ac-GASMHFKFL-NH2 [SMHF]	3 (a score of 3 for detection at 8 hours)	4 (a score of 4 for detection at 6 hours)		
Ac-GATKHKKFL-NH2 [TKHK]			3 (a score of 3 for detection at 8 hours)	12 (a score of 12, if it was seen to be partially hydrolysed at 2 hours)
Ac-GASYHSKFL-NH2 [SYHS]	0 (a score of 0 if no trace of the product of hydrolysis was seen after 8 hours of incubation)	0 (a score of 0 if no trace of the product of hydrolysis was seen after 8 hours of incubation)		
Ac-GASSHIKFL-NH2 [SSHI]	6 (a score of 6 for detection at 4 hours)	6 (a score of 6 for detection at 4 hours)		
Ac-GASWHGKFL-NH2 [SWHG]	0 (a score of 0 if no trace of the product of hydrolysis was seen after 8 hours of incubation)	3 (a score of 3 for detection at 8 hours)		
Ac-GASGHHKFL-NH2 [SGHH]	0 (a score of 0 if no trace of the product of hydrolysis was seen after 8 hours of incubation)	0 (a score of 0 if no trace of the product of hydrolysis was seen after 8 hours of incubation)		
Ac-GASGHGKFL-NH2 [SGHG]	0 (a score of 0 if no trace of the product of hydrolysis was seen after 8 hours of incubation)	0 (a score of 0 if no trace of the product of hydrolysis was seen after 8 hours of incubation)		
Ac-GASIHYKFL-NH2 [SIHY]	0 (a score of 0 if no trace of the product of hydrolysis was seen after 8 hours of incubation)	0 (a score of 0 if no trace of the product of hydrolysis was seen after 8 hours of incubation)		
Ac-GATRHTKFL-NH2 [TRHT]			0 (a score of 0 if no trace of the product of hydrolysis was seen after 8 hours of incubation)	0 (a score of 0 if no trace of the product of hydrolysis was seen after 8 hours of incubation)
Ac-GASQHDKFL-NH2 [SQHD]	0 (a score of 0 if no trace of the product of hydrolysis was seen after 8 hours of incubation)	0 (a score of 0 if no trace of the product of hydrolysis was seen after 8 hours of incubation)		
Ac-GATKHRKFL-NH2 [TKHR]			4 (a score of 4 for detection at 6 hours)	12 (a score of 12, if it was seen to be partially hydrolysed at 2 hours)
Ac-GASSHRKFL-NH2 [SSHR]	6 (a score of 6 for detection at 4 hours)	6 (a score of 6 for detection at 4 hours)		

Substance	hydrolysis score from MALDI-TOF screening [1]	hydrolysis score from MALDI-TOF screening [2]	hydrolysis score from MALDI-TOF screening [3]	hydrolysis score from MALDI-TOF screening [4]
Ac-GASQHAKFL-NH2 [SQHA]	0 (a score of 0 if no trace of the product of hydrolysis was seen after 8 hours of incubation)	3 (a score of 3 for detection at 8 hours)		
Ac-GATQHRKFL-NH2 [TQHR]			3 (a score of 3 for detection at 8 hours)	4 (a score of 4 for detection at 6 hours)
Ac-GATFHDKFL-NH2 [TFHD]			0 (a score of 0 if no trace of the product of hydrolysis was seen after 8 hours of incubation)	0 (a score of 0 if no trace of the product of hydrolysis was seen after 8 hours of incubation)
Ac-GATLHSKFL-NH2 [TLHS]			0 (a score of 0 if no trace of the product of hydrolysis was seen after 8 hours of incubation)	0 (a score of 0 if no trace of the product of hydrolysis was seen after 8 hours of incubation)
Ac-GASPHKKFL-NH2 [SPHK]	0 (a score of 0 if no trace of the product of hydrolysis was seen after 8 hours of incubation)	0 (a score of 0 if no trace of the product of hydrolysis was seen after 8 hours of incubation)		
Ac-GATIHTKFL-NH2 [TIHT]			0 (a score of 0 if no trace of the product of hydrolysis was seen after 8 hours of incubation)	0 (a score of 0 if no trace of the product of hydrolysis was seen after 8 hours of incubation)
Ac-GATPHFKFL-NH2 [TPHF]				0 (a score of 0 if no trace of the product of hydrolysis was seen after 8 hours of incubation)
Ac-GATKHMKFL-NH2 [TKHM]			3 (a score of 3 for detection at 8 hours)	4 (a score of 4 for detection at 6 hours)
Ac-GATIHWKFL-NH2 [TIHW]			3 (a score of 3 for detection at 8 hours)	3 (a score of 3 for detection at 8 hours)
Ac-GASIHNKFL-NH2 [SIHN]	0 (a score of 0 if no trace of the product of hydrolysis was seen after 8 hours of incubation)	0 (a score of 0 if no trace of the product of hydrolysis was seen after 8 hours of incubation)		
Ac-GATLHAKFL-NH2 [TLHA]			0 (a score of 0 if no trace of the product of hydrolysis was seen after 8 hours of incubation)	0 (a score of 0 if no trace of the product of hydrolysis was seen after 8 hours of incubation)
Ac-GASNHRKFL-NH2 [SNHR]	6 (a score of 6 for detection at 4 hours)	6 (a score of 6 for detection at 4 hours)		
Ac-GASHHFKFL-NH2 [SHHF]	3 (a score of 3 for detection at 8 hours)	3 (a score of 3 for detection at 8 hours)		
Ac-GATSHNKFL-NH2 [TSHN]			0 (a score of 0 if no trace of the product of hydrolysis was seen after 8 hours of incubation)	0 (a score of 0 if no trace of the product of hydrolysis was seen after 8 hours of incubation)
Ac-GASLHPKFL-NH2 [SLHP]	0 (a score of 0 if no trace of the product of hydrolysis was seen after 8 hours of incubation)	0 (a score of 0 if no trace of the product of hydrolysis was seen after 8 hours of incubation)		
Ac-GASYHMKFL-NH2 [SYHM]	0 (a score of 0 if no trace of the product of hydrolysis was seen after 8 hours of incubation)	0 (a score of 0 if no trace of the product of hydrolysis was seen after 8 hours of incubation)		
Ac-GATKHQKFL-NH2 [TKHQ]			0 (a score of 0 if no trace of the product of hydrolysis was seen after 8 hours of incubation)	0 (a score of 0 if no trace of the product of hydrolysis was seen after 8 hours of incubation)
Ac-GATRHAKFL-NH2 [TRHA]			0 (a score of 0 if no trace of the product of hydrolysis was seen after 8 hours of incubation)	3 (a score of 3 for detection at 8 hours)
Ac-GATPHHKFL-NH2 [TPHH]				0 (a score of 0 if no trace of the product of hydrolysis was seen after 8 hours of incubation)
Ac-GATQHLKFL-NH2 [TQHL]			0 (a score of 0 if no trace of the product of hydrolysis was seen after 8 hours of incubation)	3 (a score of 3 for detection at 8 hours)
